51 compounds from US20250099448A1, “HETEROCYCLIC COMPOUNDS” (Hoffmann-La Roche Inc., priority 2022, published 2025) can be followed below.

The target in this experiment is T1, MAGL protein (Homo sapiens, UniProt Q99685).
T1 sequence (Q99685 1-303): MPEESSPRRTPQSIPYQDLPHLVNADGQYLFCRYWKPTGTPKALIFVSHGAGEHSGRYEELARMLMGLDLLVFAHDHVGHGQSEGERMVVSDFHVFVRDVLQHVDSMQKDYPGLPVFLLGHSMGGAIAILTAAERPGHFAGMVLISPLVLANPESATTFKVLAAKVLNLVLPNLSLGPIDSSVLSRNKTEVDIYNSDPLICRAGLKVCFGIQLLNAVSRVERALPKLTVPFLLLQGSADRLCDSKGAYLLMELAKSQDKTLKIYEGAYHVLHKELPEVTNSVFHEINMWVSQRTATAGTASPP
The experiment is described as follows: 2-AG assay: MAGL inhibitory activity by hydrolysis of 2-arachidonoylglycerol to arachidonic acid, followed by mass spectrometry. The note with it: 8 μM 2-arachidonoylglycerol, 15 min preincubation, 30 min reaction at RT, RapidFire MS readout. The experiment is classed as biochemical. The method, boiled down: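 Activity was measured by RapidFire SPE–triple-quad MS as the ratio of arachidonic acid to d8-arachidonic acid after 2-AG hydrolysis (8 μM substrate, 30 min, RT, acetonitrile quench). Compounds, tested from 12.5 μM down to […], were first preincubated 15 min with MAGL in TRIS/EDTA/Tween-20 buffer containing 2.5% DMSO.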

Consider `Cn1cc(CC2CC3(C2)CN(C(=O)N2CC4(CC(c5nc(C6(O)CC6)n[nH]5)C4)C2)C3)c(C(F)(F)F)n1` [compound 810], for which half-maximal inhibition (IC50) was put at 1.14 nM. This lies in the single-digit nanomolar range. As for `NC1(c2nnc(C3CC4(C3)CN(C(=O)N3CC5(CC(Cc6ccc(C(F)(F)F)cc6F)C5)C3)C4)[nH]2)CC1` [Example 852, [6-[5-(1-aminocyclopropyl)-4H-1,2,4-triazol-3-yl]-2-azaspiro[3.3]heptan-2-yl]-[6-[[2-fluoro-4-(trifluoromethyl)phenyl]methyl]-2-azaspiro[3.3]heptan-2-yl]methanone], the figure is 0.06 nM; as for `CC(C)(C)Cc1nnc(C23CC(C4CN(C(=O)N5CC6(CC(c7nnc(C8CC8)[nH]7)C6)C5)C4)(C2)C3)o1` [compound 343], 0.97 nM. In the case of `O=C(N1CC2(CC(c3nc(C4CC4)n[nH]3)C2)C1)N1CC2(CN(Cc3nnnn3CC(F)(F)F)C2)C1` [compound 521], half-maximal inhibition (IC50) was put at 78.6 nM. On to `N=S(=O)(c1cccc(OC2CC3(C2)CN(C(=O)N2CC4(CC(c5nc(C6CC6)n[nH]5)C4)C2)C3)c1)C(F)(F)F` (stereo not drawn) [compound 848], for which inhibition was half-maximal at 0.67 nM (IC50). As for `O=C(N1CC(C23CC(Cc4ccc(C(F)(F)F)cc4F)(C2)C3)C1)N1CC2(CC(c3nc(C4CC4)n[nH]3)C2)C1` [compound 527], the figure is 0.98 nM. On to `O=C(N1CC2(CC(c3nnc(C4CC4)[nH]3)C2)C1)N1CC2(CN(Cc3ncc(F)cc3F)C2)C1` [compound 165], for which the IC50 – broadly, the concentration that inhibits the measured activity by half – is 30.9 nM. On to `O=C(N1CCC(CNS(=O)(=O)c2ccc(C(F)(F)F)cc2)CC1)N1CC2(CC(c3nnc(C4CC4)[nH]3)C2)C1` [compound 250], for which half-maximal inhibition (IC50) required 41.5 nM. `O=C(N1CC2(CCC(Cc3cnc(C(F)(F)F)cn3)CC2)C1)N1CC2(CC(c3nnc(C4(O)CC4)[nH]3)C2)C1` [compound 137] had a half-maximal inhibitory concentration (IC50) of 6.79 nM. Against the preceding compound, the IC50 is about 6.1-fold lower. For `CC(F)(F)c1noc(CN2CC3(C2)CN(C(=O)N2CC4(CC(c5nc(C6CC6)n[nH]5)C4)C2)C3)n1` [compound 743] the value was 13.2 nM; for `O=C(N1CC2(CC(Cc3nc(C(F)(F)F)cs3)C2)C1)N1CC2(CC(c3nc(C4COC4)n[nH]3)C2)C1` [compound 783], 33.7 nM. Regarding `CC(C)(Oc1ccc(C2CN(C(=O)N3CC4(CC(c5nnc(C6CC6)[nH]5)C4)C3)C2)cc1)C(F)(F)F` [compound 366], the half-maximal inhibitory concentration (IC50) amounted to 0.08 nM. Against the preceding compound, the IC50 is about 420-fold lower.

On to `N#Cc1ccc(CC2CC3(C2)CN(C(=O)N2CC4(CC(c5nc(C6COC6)n[nH]5)C4)C2)C3)cc1C(F)(F)F` [compound 771], for which half-maximal inhibition (IC50) required 7.02 nM. This IC50 lies about 88-fold higher than the previous one. As for `O=C(N1CC(C23CC(c4nnc(C5(C(F)(F)F)CC5)s4)(C2)C3)C1)N1CC2(CC(c3nc(C4(O)CC4)n[nH]3)C2)C1` [compound 447], the figure is 101 nM; as for `O=C(N1CC(NCc2ccc(OC(F)(F)F)cc2)C1)N1CC2(CC(c3nnc(C4CC4)[nH]3)C2)C1` [compound 191], 45.6 nM; as for `O=C(N1CC2(CCN(Cc3cc(C(F)(F)F)[nH]n3)CC2)C1)N1CC2(CC(c3nc(C4CC4)n[nH]3)C2)C1` [compound 525], 7.08 nM.

`O=C(N1CC2(CC(NS(=O)(=O)c3cccc(C(F)(F)F)c3)C2)C1)N1CC2(CC(c3nnc(C4CC4)[nH]3)C2)C1` [compound 56] yielded an IC50 of 0.74 nM. For `CS(=O)(=O)c1cc(CC2CC3(C2)CN(C(=O)N2CC4(CC(c5nc(C6(O)CC6)n[nH]5)C4)C2)C3)cc(C(F)(F)F)c1` [compound 670] the value was 1 nM.

`CCc1nsc(CN2CC3(C2)CN(C(=O)N2CC4(CC(c5nc(C6CC6)n[nH]5)C4)C2)C3)n1` [compound 762] displayed an IC50 of 35.7 nM. This IC50 is about 36-fold higher than that of the compound before. `O=C(N1CC2(CC(c3nc(C4CC4)n[nH]3)C2)C1)N1CC2(CN(Cc3nc(C4CC4)ns3)C2)C1` [compound 637]: the 50% inhibitory concentration (IC50) was 7.44 nM.

`O=C(N1CC(OCc2cncc(C(F)(F)F)c2)C1)N1CC2(CC(c3nnc(C4CC4)[nH]3)C2)C1` [compound 329]: the IC50 stood at 38.1 nM. As for `O=C(N1CC(Oc2ccc(C(F)(F)F)nn2)C1)N1CC2(CC(c3nnc(C4CC4)[nH]3)C2)C1` [compound 314], the figure is 4.76 nM; as for `O=C(N1CC2(CC(c3nnc(C4CC4)[nH]3)C2)C1)C12C3C4C1C1C2C3C41Nc1cnc(C(F)(F)F)cn1` (stereo not drawn) [Example 811, [6-(5-cyclopropyl-4H-1,2,4-triazol-3-yl)-2-azaspiro[3.3]heptan-2-yl]-[4-[[5-(trifluoromethyl)pyrazin-2-yl]amino]cuban-1-yl]methanone], 0.43 nM. In the case of `COC(=O)c1ccccc1-c1ccc(C2CN(C(=O)N3CC4(CC(c5nnc(C6CC6)[nH]5)C4)C3)C2)cc1` [compound 339], the midpoint of inhibition, the IC50, lay at 0.16 nM. This IC50 lies about 2.7-fold lower than the previous one. Consider `O=C(N1CC2(CC(Cc3ccc(F)cn3)C2)C1)N1CC2(CC(c3nnc(C4CC4)[nH]3)C2)C1` [compound 43], for which the half-inhibitory concentration (IC50) was 0.58 nM. For `O=C(N1CC(c2ccc(N3CC(C(F)(F)F)C3)nc2)C1)N1CC2(CC(c3nnc(C4CCC4)[nH]3)C2)C1` [compound 260], the 50% inhibitory concentration (IC50) was 19.7 nM. This IC50 is about 34-fold higher than that of the compound before. As for `O=C(N1CC2(CCC(Cc3ncc(F)cc3F)CC2)C1)N1CC2(CC(c3nnc(C4CC4)[nH]3)C2)C1` [compound 142], the figure is 0.84 nM. As for `O=C(N1CC2(CC(Cc3cc(C4CC4)n[nH]3)C2)C1)N1CC2(CC(c3nc(C4CC4)n[nH]3)C2)C1` [compound 644], the figure is 0.22 nM; as for `O=C(N1CC2(CC(c3nc(C4CC4)n[nH]3)C2)C1)N1CC2(CN(Cc3ccc(S(=O)(=O)C(F)(F)F)cc3F)C2)C1` [compound 554], 0.56 nM.

The compound `Cn1nc(C(F)(F)F)cc1CC1CC2(C1)CN(C(=O)N1CC3(CC(c4nc(C5(O)CC5)n[nH]4)C3)C1)C2` [compound 775] showed a half-inhibitory concentration (IC50) of 2.01 nM. Turning to `O=C(N1CC(C23CC(c4ccc(OC(F)(F)F)cc4)(C2)C3)C1)N1CC2(CC(c3nc(C4CC4)n[nH]3)C2)C1` [compound 490], 0.05 nM corresponded to half-maximal inhibition (IC50).

Compound `O=C(N1CC2(CC(Cc3ccc4[nH]nc(C(F)(F)F)c4c3)C2)C1)N1CC2(CC(c3nc(C4CC4)n[nH]3)C2)C1` [compound 994] yielded an IC50 of 0.06 nM. This IC50 and that of the compound before are within 1.5-fold of each other. `O=C(N1CC2(CCN(Cc3ccc(C(F)(F)F)cn3)CC2)C1)N1CC2(CC(c3nnc(C4CC4)[nH]3)C2)C1` [compound 178] gave a 50% inhibitory concentration (IC50) of 1.8 nM. With `N#Cc1cc(CC2CC3(C2)CN(C(=O)N2CC4(CC(c5nnc(C6CC6)[nH]5)C4)C2)C3)cc(C(F)(F)F)n1` [compound 778], the IC50 was 0.99 nM. This IC50 lies about 1.8-fold lower than the previous one. Turning to `N=S(=O)(c1ccc(OC2CC3(C2)CN(C(=O)N2CC4(CC(c5nc(C6CC6)n[nH]5)C4)C2)C3)cc1)C(F)(F)F` (stereo not drawn) [compound 730], 2.01 nM corresponded to half-maximal inhibition (IC50). As to `O=C(N1CC2(CC(Nc3ccc(C(F)(F)F)nn3)C2)C1)N1CC2(CC(c3nnc(C4CC4)[nH]3)C2)C1` [compound 57], it took 25.7 nM to reach half-maximal inhibition (IC50). Compared with the last compound, the IC50 is about 13-fold higher. Compound `NC(=O)[C@H]1CCCN1c1ccc(C2CN(C(=O)N3CC4(CC(c5nnc(C6CC6)[nH]5)C4)C3)C2)cc1` [Example 398, (2R)-1 [4-[1-[6-(5-cyclopropyl-4H-1,2,4-triazol-3-yl)-2-azaspiro[3.3]heptane-2-carbonyl]azetidin-3-yl]phenyl]pyrrolidine-2-carboxamide] returned a half-maximal inhibitory concentration (IC50) of 2.4 nM. `CS(=O)(=O)c1cc(CC2CC3(C2)CN(C(=O)N2CC4(CC(c5nc(C6CC6)n[nH]5)C4)C2)C3)cc(C(F)(F)F)c1` [compound 809] came in with an IC50 of 0.34 nM. Against the preceding compound, the IC50 is about 7.1-fold lower. For `O=C(N1CC2(CC(c3nc(C4(O)CC4)n[nH]3)C2)C1)N1CC2(CC[C@H](Cc3cccc(S(=O)(=O)C(F)(F)F)c3)C2)C1` [compound 741] the value was 0.15 nM; for `O=C(N1CC2(CC(Cc3ncc(Cl)cc3F)C2)C1)N1CC2(CC(c3nc(C4CC(F)(F)C4)n[nH]3)C2)C1` [compound 737], 12 nM; for `O=C(N1CC2(CC(c3nnc(C4CC4)[nH]3)C2)C1)N1CC2(C1)CN(S(=O)(=O)c1ccccc1C(F)(F)F)C2` [compound 96], 2.94 nM. As for `CC(C)(C)Cc1nnc(C23CC(C4CN(C(=O)N5CC6(CC(c7nc(C8(O)CC8)n[nH]7)C6)C5)C4)(C2)C3)s1` [compound 466], the figure is 22.9 nM; as for `O=C(N1CC2(CC(Cc3cncc(F)c3)C2)C1)N1CC2(CC(c3nnc(C4CC4)[nH]3)C2)C1` [compound 45], 2.37 nM. In the case of `N#Cc1cc(F)ccc1C12CC(C3CN(C(=O)N4CC5(CC(c6nc(C7CC7)n[nH]6)C5)C4)C3)(C1)C2` [compound 463], the IC50 was determined as 0.56 nM.

`O=C(N1CC2(CC(c3nc(C(F)(F)F)n[nH]3)C2)C1)N1CC2(CN(Cc3ccc(S(=O)(=O)C(F)(F)F)cc3)C2)C1` [compound 850]: it took 13.7 nM to reach half-maximal inhibition (IC50). Compound `Cn1nc(C2CC2)cc1CN1CC2(C1)CN(C(=O)N1CC3(CC(c4nc(C5CC5)n[nH]4)C3)C1)C2` [compound 623] registered an IC50 of 12.6 nM. The compound `O=C(N1CC2(CC(Oc3nc(C(F)(F)F)cs3)C2)C1)N1CC2(CC(c3nc(C4CC4)n[nH]3)C2)C1` [compound 423] showed an IC50 of 1.11 nM. Compared with the last compound, the IC50 is about 11-fold lower. Regarding `Cc1cc(C2CC2)n(C23CC(C4CN(C(=O)N5CC6(CC(c7nc(C8(O)CC8)n[nH]7)C6)C5)C4)(C2)C3)n1` [compound 588], the IC50 was 40.4 nM. In turn, `N=S(=O)(c1cc(F)cc(CC2CC3(C2)CN(C(=O)N2CC4(CC(c5nc(C6CC6)n[nH]5)C4)C2)C3)c1)C(F)(F)F` (stereo not drawn) [compound 649] had an IC50 of 0.12 nM. With `O=C(N1CC2(CC(Cc3ncc(F)cc3Cl)C2)C1)N1CC2(CC(c3nc(C4CC(F)(F)C4)n[nH]3)C2)C1` [compound 617], the IC50 is 8.16 nM.

In the case of `Cc1cc(C(F)F)nn1CC1CC2(C1)CN(C(=O)N1CC3(CC(c4nc(C5CC5)n[nH]4)C3)C1)C2` [compound 818], half-maximal inhibition (IC50) was put at 0.59 nM.
